Reference: ChEMBL document CHEMBL4507280 (2021)

Assays:
[1] = target: Mitogen-activated protein kinase kinase kinase 15 (Homo sapiens) (UniProt Q6ZN16); settings: Compound concentration 1000.0 nM
[2] = target: Cyclin-dependent kinase 11B (Homo sapiens) (UniProt P21127); settings: Compound concentration 1000.0 nM
[3] = target: Homeodomain-interacting protein kinase 3 (Homo sapiens) (UniProt Q9H422); settings: Compound concentration 1000.0 nM
[4] = system: Tyrosine-protein kinase ABL1 (Homo sapiens), P00519 [Q252H]; settings: Compound concentration 1000.0 nM
[5] = system: Tyrosine-protein kinase ABL1 (Homo sapiens), P00519 [T315I]; settings: Compound concentration 1000.0 nM
[6] = target: Serine/threonine-protein kinase Nek11 (Homo sapiens) (UniProt Q8NG66); settings: Compound concentration 1000.0 nM
[7] = system: Receptor-type tyrosine-protein kinase FLT3 (Homo sapiens), P36888 [UNDEFINED MUTATION]; settings: Compound concentration 1000.0 nM
Chain of Receptor-type tyrosine-protein kinase FLT3 (Homo sapiens), P36888 [UNDEFINED MUTATION] (P36888 whole entry, looked up, change not shown): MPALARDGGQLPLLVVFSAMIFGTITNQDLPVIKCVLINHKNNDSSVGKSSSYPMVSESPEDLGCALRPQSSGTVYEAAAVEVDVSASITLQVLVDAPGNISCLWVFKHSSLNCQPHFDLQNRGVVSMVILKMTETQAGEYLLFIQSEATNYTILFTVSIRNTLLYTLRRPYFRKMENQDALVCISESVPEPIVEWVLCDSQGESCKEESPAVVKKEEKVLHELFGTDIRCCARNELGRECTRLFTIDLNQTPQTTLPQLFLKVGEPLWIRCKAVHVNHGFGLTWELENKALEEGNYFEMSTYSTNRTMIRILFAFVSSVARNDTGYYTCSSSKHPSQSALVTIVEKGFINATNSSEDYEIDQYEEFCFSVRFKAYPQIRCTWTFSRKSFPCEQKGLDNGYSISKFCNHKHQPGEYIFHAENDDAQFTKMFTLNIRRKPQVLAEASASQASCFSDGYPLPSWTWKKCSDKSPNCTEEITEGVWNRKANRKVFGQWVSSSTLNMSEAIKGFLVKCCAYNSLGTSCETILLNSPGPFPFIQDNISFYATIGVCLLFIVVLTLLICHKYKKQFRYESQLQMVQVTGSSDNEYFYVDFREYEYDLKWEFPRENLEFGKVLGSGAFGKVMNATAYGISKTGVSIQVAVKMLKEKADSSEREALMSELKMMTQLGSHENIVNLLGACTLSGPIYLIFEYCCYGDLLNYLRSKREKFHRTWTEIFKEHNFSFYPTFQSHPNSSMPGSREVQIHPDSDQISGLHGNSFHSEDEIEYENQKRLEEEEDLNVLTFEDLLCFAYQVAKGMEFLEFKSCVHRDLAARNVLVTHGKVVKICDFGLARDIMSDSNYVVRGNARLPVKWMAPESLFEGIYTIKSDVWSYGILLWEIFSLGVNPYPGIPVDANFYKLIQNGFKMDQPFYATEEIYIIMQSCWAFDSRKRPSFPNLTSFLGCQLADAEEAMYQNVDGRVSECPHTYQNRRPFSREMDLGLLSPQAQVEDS

[8] = target: Wee1-like protein kinase (Homo sapiens) (UniProt P30291); settings: Compound concentration 1000.0 nM
[9] = target: Tyrosine-protein kinase Yes (Homo sapiens) (UniProt P07947); settings: Compound concentration 1000.0 nM
[10] = target: Atypical kinase COQ8B, mitochondrial (Homo sapiens) (UniProt Q96D53); settings: Compound concentration 1000.0 nM
[11] = target: Ephrin type-B receptor 1 (Homo sapiens) (UniProt P54762); settings: Compound concentration 1000.0 nM
[12] = target: Tyrosine-protein kinase Mer (Homo sapiens) (UniProt Q12866); settings: Compound concentration 1000.0 nM
[13] = target: Bone morphogenetic protein receptor type-1B (Homo sapiens) (UniProt O00238); settings: Compound concentration 1000.0 nM
Chain of Bone morphogenetic protein receptor type-1B (Homo sapiens) (O00238 whole entry): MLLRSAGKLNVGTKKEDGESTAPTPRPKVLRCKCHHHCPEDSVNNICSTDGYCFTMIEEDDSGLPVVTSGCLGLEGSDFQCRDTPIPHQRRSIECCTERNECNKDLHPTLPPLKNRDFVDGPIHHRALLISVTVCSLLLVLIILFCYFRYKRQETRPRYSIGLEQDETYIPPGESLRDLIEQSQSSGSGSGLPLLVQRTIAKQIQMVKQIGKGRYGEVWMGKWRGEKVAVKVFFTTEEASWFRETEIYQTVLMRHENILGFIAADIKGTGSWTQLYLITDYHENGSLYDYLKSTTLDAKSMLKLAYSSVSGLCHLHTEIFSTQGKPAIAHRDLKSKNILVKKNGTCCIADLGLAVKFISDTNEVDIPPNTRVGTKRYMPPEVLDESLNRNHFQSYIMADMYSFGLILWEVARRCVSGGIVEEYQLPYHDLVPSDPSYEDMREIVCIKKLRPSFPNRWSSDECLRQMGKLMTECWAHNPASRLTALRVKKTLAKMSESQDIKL

[14] = target: T1, Alpha-1A adrenergic receptor (Homo sapiens) (UniProt P35348); settings: Compound concentration 10.0 uM
T1 sequence (whole entry): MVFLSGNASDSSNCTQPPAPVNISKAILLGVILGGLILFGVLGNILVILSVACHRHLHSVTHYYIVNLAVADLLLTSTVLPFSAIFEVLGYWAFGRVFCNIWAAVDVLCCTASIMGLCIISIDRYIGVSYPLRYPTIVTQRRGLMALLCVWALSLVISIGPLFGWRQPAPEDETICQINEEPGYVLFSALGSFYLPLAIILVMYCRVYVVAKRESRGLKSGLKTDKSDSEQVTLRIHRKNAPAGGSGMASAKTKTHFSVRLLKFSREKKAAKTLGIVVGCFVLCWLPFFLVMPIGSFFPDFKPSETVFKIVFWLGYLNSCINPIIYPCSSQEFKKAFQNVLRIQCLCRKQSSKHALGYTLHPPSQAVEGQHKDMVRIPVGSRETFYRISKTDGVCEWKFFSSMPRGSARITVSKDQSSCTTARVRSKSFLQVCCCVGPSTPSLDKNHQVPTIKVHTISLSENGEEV

[15] = system: Tyrosine-protein kinase ABL1 (Homo sapiens), P00519 [Q252H]; settings: Compound concentration 1000.0 nM; remark: listed apart in the source
[16] = target: Tyrosine-protein kinase CSK (Homo sapiens) (UniProt P41240); settings: Compound concentration 1000.0 nM
Chain of Tyrosine-protein kinase CSK (Homo sapiens) (P41240 2-450 limits assumed): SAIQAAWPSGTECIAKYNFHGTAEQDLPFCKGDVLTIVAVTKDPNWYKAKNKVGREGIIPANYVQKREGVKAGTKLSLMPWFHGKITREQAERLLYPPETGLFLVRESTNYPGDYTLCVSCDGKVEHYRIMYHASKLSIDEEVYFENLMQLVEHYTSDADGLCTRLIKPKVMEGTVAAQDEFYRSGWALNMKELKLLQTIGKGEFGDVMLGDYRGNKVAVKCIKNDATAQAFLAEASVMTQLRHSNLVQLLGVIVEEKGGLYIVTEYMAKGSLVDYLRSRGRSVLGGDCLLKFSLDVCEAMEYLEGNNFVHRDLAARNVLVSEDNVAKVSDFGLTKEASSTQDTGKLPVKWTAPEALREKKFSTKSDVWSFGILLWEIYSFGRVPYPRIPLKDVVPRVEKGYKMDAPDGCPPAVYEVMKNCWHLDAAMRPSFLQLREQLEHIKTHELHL

[17] = target: Cyclin-dependent kinase 8 (Homo sapiens) (UniProt P49336); settings: Compound concentration 1000.0 nM
[18] = target: Calcium/calmodulin-dependent protein kinase type II subunit alpha (Homo sapiens) (UniProt Q9UQM7); settings: Compound concentration 1000.0 nM
[19] = target: Misshapen-like kinase 1 (Homo sapiens) (UniProt Q8N4C8); settings: Compound concentration 1000.0 nM
[20] = target: Serine/threonine-protein kinase D2 (Homo sapiens) (UniProt Q9BZL6); settings: Compound concentration 1000.0 nM
[21] = target: Serine/threonine-protein kinase ULK1 (Homo sapiens) (UniProt O75385); settings: Compound concentration 1000.0 nM
[22] = target: Serine/threonine-protein kinase PAK 6 (Homo sapiens) (UniProt Q9NQU5); settings: Compound concentration 1000.0 nM
[23] = target: BMP-2-inducible protein kinase (Homo sapiens) (UniProt Q9NSY1); settings: Compound concentration 1000.0 nM
[24] = target: RAC-alpha serine/threonine-protein kinase (Homo sapiens) (UniProt P31749); settings: Compound concentration 1000.0 nM
[25] = target: Serine/threonine-protein kinase WNK1 (Homo sapiens) (UniProt Q9H4A3); settings: Compound concentration 1000.0 nM
[26] = system: Epidermal growth factor receptor (Homo sapiens), P00533 [UNDEFINED MUTATION]; settings: Compound concentration 1000.0 nM
[27] = target: Proto-oncogene tyrosine-protein kinase Src (Homo sapiens) (UniProt P12931); settings: Compound concentration 1000.0 nM
[28] = target: Mast/stem cell growth factor receptor Kit (Homo sapiens) (UniProt P10721); settings: Compound concentration 1000.0 nM
[29] = target: RAC-gamma serine/threonine-protein kinase (Homo sapiens) (UniProt Q9Y243); settings: Compound concentration 1000.0 nM
Chain of RAC-gamma serine/threonine-protein kinase (Homo sapiens) (Q9Y243 whole entry, the tested form may be a part): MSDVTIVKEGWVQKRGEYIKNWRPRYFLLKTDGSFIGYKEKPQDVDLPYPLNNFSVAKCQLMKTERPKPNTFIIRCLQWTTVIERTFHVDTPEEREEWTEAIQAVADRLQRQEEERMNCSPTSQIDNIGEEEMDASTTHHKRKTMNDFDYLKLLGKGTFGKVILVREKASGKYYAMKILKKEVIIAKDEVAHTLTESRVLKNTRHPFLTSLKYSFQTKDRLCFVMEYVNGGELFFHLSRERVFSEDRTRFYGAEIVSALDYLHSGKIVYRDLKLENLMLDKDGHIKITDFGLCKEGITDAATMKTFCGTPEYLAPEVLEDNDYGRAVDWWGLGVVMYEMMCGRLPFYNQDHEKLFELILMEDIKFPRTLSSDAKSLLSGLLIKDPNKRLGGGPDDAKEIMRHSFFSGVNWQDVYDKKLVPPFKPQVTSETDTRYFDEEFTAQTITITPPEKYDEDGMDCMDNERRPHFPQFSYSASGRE

[30] = target: Epithelial discoidin domain-containing receptor 1 (Homo sapiens) (UniProt Q08345); settings: Compound concentration 1000.0 nM
Chain of Epithelial discoidin domain-containing receptor 1 (Homo sapiens) (Q08345 whole entry, the tested form may be a part): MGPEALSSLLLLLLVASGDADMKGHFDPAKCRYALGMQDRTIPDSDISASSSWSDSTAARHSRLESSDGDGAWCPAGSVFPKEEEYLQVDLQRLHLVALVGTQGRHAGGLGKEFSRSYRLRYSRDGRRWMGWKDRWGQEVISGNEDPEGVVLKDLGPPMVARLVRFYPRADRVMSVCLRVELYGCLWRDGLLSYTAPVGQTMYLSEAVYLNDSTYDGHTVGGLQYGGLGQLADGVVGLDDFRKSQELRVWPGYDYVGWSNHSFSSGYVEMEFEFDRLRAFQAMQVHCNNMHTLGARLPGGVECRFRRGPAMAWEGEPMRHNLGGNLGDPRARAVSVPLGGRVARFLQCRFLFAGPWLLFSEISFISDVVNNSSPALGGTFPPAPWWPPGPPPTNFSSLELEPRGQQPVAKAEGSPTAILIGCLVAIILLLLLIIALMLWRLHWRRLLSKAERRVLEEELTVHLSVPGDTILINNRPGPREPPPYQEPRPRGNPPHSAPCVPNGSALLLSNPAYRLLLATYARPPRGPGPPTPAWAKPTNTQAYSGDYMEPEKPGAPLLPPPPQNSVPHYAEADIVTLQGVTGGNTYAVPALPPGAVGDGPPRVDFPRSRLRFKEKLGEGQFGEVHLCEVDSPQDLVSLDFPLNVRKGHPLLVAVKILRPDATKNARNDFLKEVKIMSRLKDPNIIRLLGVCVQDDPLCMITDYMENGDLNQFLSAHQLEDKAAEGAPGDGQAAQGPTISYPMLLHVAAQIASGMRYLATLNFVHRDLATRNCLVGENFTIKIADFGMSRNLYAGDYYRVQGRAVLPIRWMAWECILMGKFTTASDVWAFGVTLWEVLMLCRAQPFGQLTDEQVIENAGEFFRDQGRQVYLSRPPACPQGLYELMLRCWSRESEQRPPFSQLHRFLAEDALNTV

[31] = system: Epidermal growth factor receptor (Homo sapiens), P00533 [G719S]; settings: Compound concentration 1000.0 nM
[32] = target: Tyrosine-protein kinase FRK (Homo sapiens) (UniProt P42685); settings: Compound concentration 1000.0 nM
[33] = target: Serine/threonine-protein kinase 26 (Homo sapiens) (UniProt Q9P289); settings: Compound concentration 1000.0 nM
[34] = target: Serine/threonine-protein kinase LATS2 (Homo sapiens) (UniProt Q9NRM7); settings: Compound concentration 1000.0 nM
[35] = target: Tyrosine-protein kinase SYK (Homo sapiens) (UniProt P43405); settings: Compound concentration 1000.0 nM
[36] = target: Kappa-type opioid receptor (Homo sapiens) (UniProt P41145); settings: Compound concentration 10.0 uM
Chain of Kappa-type opioid receptor (Homo sapiens) (P41145 whole entry): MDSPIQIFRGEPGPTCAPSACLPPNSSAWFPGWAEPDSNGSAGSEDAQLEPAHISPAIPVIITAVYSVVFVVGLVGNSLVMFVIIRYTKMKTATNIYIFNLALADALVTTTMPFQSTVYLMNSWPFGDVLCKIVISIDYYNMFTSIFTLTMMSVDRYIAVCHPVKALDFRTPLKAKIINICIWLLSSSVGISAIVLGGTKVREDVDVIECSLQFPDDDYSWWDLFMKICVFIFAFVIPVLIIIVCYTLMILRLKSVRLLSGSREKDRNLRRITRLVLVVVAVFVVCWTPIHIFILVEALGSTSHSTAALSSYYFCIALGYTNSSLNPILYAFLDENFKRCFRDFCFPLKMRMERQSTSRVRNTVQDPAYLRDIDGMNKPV

[37] = target: Mitogen-activated protein kinase kinase kinase 5 (Homo sapiens) (UniProt Q99683); settings: Compound concentration 1000.0 nM
[38] = target: Tyrosine-protein kinase ABL1 (Homo sapiens) (UniProt P00519); settings: Compound concentration 1000.0 nM
[39] = system: Epidermal growth factor receptor (Homo sapiens), P00533 [UNDEFINED MUTATION]; settings: Compound concentration 1000.0 nM; remark: listed apart in the source

Chain of Mitogen-activated protein kinase kinase kinase 15 (Homo sapiens) (Q6ZN16 whole entry): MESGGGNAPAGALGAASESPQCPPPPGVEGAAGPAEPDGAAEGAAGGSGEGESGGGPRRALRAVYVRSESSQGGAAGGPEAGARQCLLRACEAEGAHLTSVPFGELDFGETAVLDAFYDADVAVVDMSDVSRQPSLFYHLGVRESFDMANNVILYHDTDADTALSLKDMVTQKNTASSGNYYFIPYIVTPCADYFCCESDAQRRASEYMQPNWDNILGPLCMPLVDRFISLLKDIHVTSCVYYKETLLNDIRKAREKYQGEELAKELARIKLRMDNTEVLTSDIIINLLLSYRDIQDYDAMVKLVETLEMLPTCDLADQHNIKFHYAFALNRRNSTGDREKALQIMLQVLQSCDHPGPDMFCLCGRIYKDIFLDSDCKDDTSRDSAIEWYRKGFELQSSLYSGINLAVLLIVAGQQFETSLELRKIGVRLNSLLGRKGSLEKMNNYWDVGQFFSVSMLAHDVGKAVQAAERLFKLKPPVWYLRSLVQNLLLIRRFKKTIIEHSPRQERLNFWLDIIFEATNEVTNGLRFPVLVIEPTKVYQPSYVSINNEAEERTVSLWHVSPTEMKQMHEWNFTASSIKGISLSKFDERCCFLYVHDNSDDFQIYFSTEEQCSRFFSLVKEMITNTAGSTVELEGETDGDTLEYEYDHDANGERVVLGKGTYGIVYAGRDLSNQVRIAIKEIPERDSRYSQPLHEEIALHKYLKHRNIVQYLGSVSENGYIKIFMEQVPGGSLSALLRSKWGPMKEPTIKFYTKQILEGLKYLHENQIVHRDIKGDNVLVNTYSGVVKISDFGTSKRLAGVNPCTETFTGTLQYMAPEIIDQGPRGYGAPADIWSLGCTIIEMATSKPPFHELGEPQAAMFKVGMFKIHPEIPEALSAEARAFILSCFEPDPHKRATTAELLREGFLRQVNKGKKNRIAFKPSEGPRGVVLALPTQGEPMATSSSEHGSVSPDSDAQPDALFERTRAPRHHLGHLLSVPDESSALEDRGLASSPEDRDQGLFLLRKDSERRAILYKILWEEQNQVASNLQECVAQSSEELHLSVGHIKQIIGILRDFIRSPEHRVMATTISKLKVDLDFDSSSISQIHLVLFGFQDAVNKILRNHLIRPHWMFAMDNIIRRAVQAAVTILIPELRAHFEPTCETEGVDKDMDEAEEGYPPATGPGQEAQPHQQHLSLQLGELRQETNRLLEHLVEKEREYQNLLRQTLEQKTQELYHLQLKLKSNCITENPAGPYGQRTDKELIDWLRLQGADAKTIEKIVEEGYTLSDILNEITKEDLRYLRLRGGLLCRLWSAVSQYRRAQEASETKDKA

CCC(=O)N[C@@H]1CC[C@H](C(=O)N(C)c2ccc(-c3nc4ccccc4o3)cc2)C1 [BI 99990]
inactive: residual activity [1] 100% | residual activity [2] 100% | residual activity [3] 76% | residual activity [4] 87% | residual activity [5] 87% | residual activity [6] 100% | residual activity [7] 76% | residual activity [8] 99% | residual activity [9] 100% | residual activity [10] 94% | residual activity [11] 100% | residual activity [12] 100% | residual activity [13] 100% | inhibition [14] 19.4% | residual activity [15] 77% | residual activity [16] 100% | residual activity [17] 100% | residual activity [18] 100% | residual activity [19] 96% | residual activity [20] 100% | residual activity [21] 100% | residual activity [22] 100% | residual activity [23] 100% | residual activity [24] 100% | residual activity [25] 100% | residual activity [26] 75% | residual activity [27] 100% | residual activity [28] 93% | residual activity [29] 100% | residual activity [30] 100% | residual activity [31] 96% | residual activity [32] 100% | residual activity [33] 77% | residual activity [34] 69% | residual activity [35] 100% | inhibition [36] 20.4% | residual activity [37] 100% | residual activity [38] 76% | residual activity [39] 88%

CCC(=O)N[C@H]1CC[C@@H](C(=O)N(C)c2ccc(-c3nc4ccccc4o3)cc2)C1 [BI 99179]
inactive: residual activity [1] 100% | residual activity [2] 99% | residual activity [3] 74% | residual activity [4] 78% | residual activity [5] 89% | residual activity [6] 86% | residual activity [7] 84% | residual activity [8] 100% | residual activity [9] 82% | residual activity [10] 74% | residual activity [11] 100% | residual activity [12] 100% | residual activity [13] 91% | inhibition [14] 22.1% | residual activity [15] 72% | residual activity [16] 100% | residual activity [17] 100% | residual activity [18] 94% | residual activity [19] 89% | residual activity [20] 100% | residual activity [21] 78% | residual activity [22] 100% | residual activity [23] 91% | residual activity [24] 97% | residual activity [25] 100% | residual activity [26] 79% | residual activity [27] 93% | residual activity [28] 84% | residual activity [29] 100% | residual activity [30] 100% | residual activity [31] 100% | residual activity [32] 100% | residual activity [33] 76% | residual activity [34] 67% | residual activity [35] 100% | inhibition [36] -6.54% | residual activity [37] 100% | residual activity [38] 85% | residual activity [39] 100%
